CN(C/C=C/C#CC(C)(C)C)Cc1cccc2ccccc12.Cl
solubility (mole fraction)
Conditions | 283.15 K | 288.15 K | 293.15 K | 298.15 K | 303.15 K | 308.15 K | 313.15 K | 318.15 K | 323.15 K
in DMSO | – | – | 0.0199 | 0.0226 | 0.0252 | 0.0284 | 0.0319 | 0.0354 | 0.0401
in acetonitrile | 0.0013 | 0.00153 | 0.00179 | 0.00213 | 0.00254 | 0.00304 | 0.00377 | 0.00455 | 0.00532
in cyclohexanol | – | – | – | – | 0.0381 | 0.048 | 0.0556 | 0.0654 | 0.0774
in ethanol | 0.0198 | 0.0222 | 0.0245 | 0.0298 | 0.0342 | 0.0414 | 0.0493 | 0.0572 | 0.0678
in isobutanol | 0.0101 | 0.0128 | 0.0159 | 0.0213 | 0.0276 | 0.0354 | 0.045 | 0.0559 | 0.0693
in isooctanol | 0.00196 | 0.00403 | 0.00498 | 0.00649 | 0.00867 | 0.0109 | 0.0143 | 0.0178 | 0.0221
in isopentanol | 0.0073 | 0.00942 | 0.0118 | 0.0149 | 0.0189 | 0.0242 | 0.0298 | 0.0389 | 0.0493
in isopropanol | 0.0031 | 0.00391 | 0.00487 | 0.00627 | 0.00831 | 0.0106 | 0.0144 | 0.0183 | 0.0245
in n-butanol | 0.0123 | 0.0168 | 0.0217 | 0.0251 | 0.0313 | 0.0377 | 0.0466 | 0.0568 | 0.0685
in n-hexanol | 0.00683 | 0.00916 | 0.0115 | 0.0148 | 0.0185 | 0.0229 | 0.0291 | 0.0373 | 0.0469
in n-pentanol | 0.0158 | 0.0208 | 0.0255 | 0.0304 | 0.0357 | 0.0428 | 0.0511 | 0.0601 | 0.0697
in n-propanol | 0.0194 | 0.0214 | 0.0233 | 0.027 | 0.0351 | 0.0427 | 0.0519 | 0.0615 | 0.0735
in sec-butanol | 0.0037 | 0.0047 | 0.00608 | 0.0077 | 0.00999 | 0.0133 | 0.0176 | 0.0227 | 0.0288

— BigSolDB 2.1
